Reference: patent US10350271B2, “Lipidated peptides for lowering blood glucose” (USTAV ORGANICKE CHEMIE A BIOCHEMIE AKADEMIE VED CR, V.V.I., priority 2014, dated 2019)
Read-outs that look alike come from different tables or passages of the source. Square brackets hold non-standard residues; d marks the D form. Ends that are not written are not given here. Peptide text beside a SMILES is read from it. * marks the point of attachment. 1Nal = N[C@@H](Cc1cccc2ccccc12)C(=O)O; Palmitoyl = CCCCCCCCCCCCCCCC(=O)*; Myristoyl = CCCCCCCCCCCCCC(=O)*; X1 = CONC(=O)[C@H](Cc1ccccc1)N*; Nle = CCCC[C@H](N)C(=O)O

How the values were obtained:
[1] = biological target: T1, human PrRP receptor GPR10 (Homo sapiens, UniProt P49683); assay: Competitive binding in CHO cells transfected with human GPR10 (human 125I-PrRP31); conditions: for % of PrRP31, GPR10 human receptor transfected in CHO cells: affinity relative to PrRP31
T1 construct: host or cells: CHO cells
T1 sequence (P49683 1-370): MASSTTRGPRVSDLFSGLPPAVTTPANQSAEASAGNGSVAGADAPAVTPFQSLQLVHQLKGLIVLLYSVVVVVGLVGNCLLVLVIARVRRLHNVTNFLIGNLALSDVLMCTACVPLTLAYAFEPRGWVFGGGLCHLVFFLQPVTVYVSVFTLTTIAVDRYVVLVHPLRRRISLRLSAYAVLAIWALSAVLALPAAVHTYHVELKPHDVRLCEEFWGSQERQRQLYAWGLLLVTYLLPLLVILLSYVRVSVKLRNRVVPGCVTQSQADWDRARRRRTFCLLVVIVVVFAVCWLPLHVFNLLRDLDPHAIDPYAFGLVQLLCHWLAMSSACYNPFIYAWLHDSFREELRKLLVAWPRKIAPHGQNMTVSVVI
Protocol: (§1) Competitive binding experiments were performed according to Motulsky and Neubig (Motulsky, A., et al., “Analyzing radioligand binding data,” Curr Protoc Neurosci, Chapter 7, Unit 7.5, 2002). Binding experiments were conducted with rat pituitary cells, and with Chinese Hamster Ovary (CHO) cells as follows:
CHO cells transfected with human PrRP receptor GPR10 (Perkin Elmer, USA) were grown on 24-well plates coated with polyethyleneimine. The cells were grown to the optimal density of 40-80 thousand cells per well. The following agents were used for the experiment: binding buffer (25 mmol·l^−1 Tris, pH 7.4; 118 mmol·l^−1 NaCl, 10 mmol·l^−1 MgCl2, 10 mmol·l^−1 CaCl2, 5.5 mmol·l^−1 glucose, 0.5 mg/ml BSA), unlabeled analogs of PrRP (i.e. the analog being tested) at a final concentration between 10^−11 to 10^−4 mol·l^−1, and radiolabeled human ^125I-PrRP31 at a final concentration of 5×10^−11 mol·l^−1.
(§2) Plates were incubated for 60 minutes at room temperature. After incubation, the cells were solubilized in 0.1 mol/l solution of NaOH, and the radioactivity bound to the cells was counted using a γ-counter. The experiments were performed in duplicate, and repeated at least three times.
(§3) Graph Pad Prism Software (San Diego, Calif., USA) was used for evaluating the competitive binding experiments. Nonlinear regression was performed using a onsite binding model.

rat PrRP receptor = biological target: T2, rat PrRP receptor (Rattus norvegicus, UniProt Q64121); assay: Competitive binding in RC-4B/C rat pituitary cells (125I-rat PrRP31); conditions: for % of PrRP31, RC-4B/C rat pituitary cells: affinity relative to PrRP31
T2 construct: host or cells: RC-4B/C rat pituitary cell line
T2 sequence (Q64121 1-370): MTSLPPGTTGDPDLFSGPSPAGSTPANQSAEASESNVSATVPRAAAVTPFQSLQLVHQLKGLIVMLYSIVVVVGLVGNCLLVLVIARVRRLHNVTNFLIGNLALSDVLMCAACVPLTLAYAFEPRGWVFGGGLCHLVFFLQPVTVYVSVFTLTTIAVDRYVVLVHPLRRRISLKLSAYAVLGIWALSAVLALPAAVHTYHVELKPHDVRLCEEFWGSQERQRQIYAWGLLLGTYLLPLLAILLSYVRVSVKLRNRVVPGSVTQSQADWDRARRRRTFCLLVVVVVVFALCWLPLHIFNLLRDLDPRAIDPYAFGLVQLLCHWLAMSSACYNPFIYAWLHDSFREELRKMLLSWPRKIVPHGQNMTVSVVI
Protocol: as §1
The rat pituitary cell line RC-4B/C (ATCC, Manassas, USA) was grown on 24-well plates which had their bottom coated with polyethyleneimine. The cells were grown to the optimal density of 300-450 thousand cells per well. The following agents were used for the experiment: binding buffer (20 mmol·l^−1 HEPES, Ph 7.4; 118 mmol·l^−1 NaCl, 4.7 mmol·l^−1 KCl, 5 mmol·l^−1 MgCl2, 5.5 mmol·l^−1 glucose, 1 mg/ml BSA, 0.1 BPTI), unlabeled analogs of PrRP (i.e. the analog being tested) at a final concentration between 10^−11 to 10^−4 mol·l^−1, and rat ^125I-PrRP31 (labeled with radioactive Iodine-125) at a final concentration of […] (Maixnerová et al., 2011).
as §2, §3

[2] = CHO cells, human 125I-PrRP31, read-out: Ki, GPR10 human receptor transfected in CHO cells

Row | Molecule | % of PrRP31, GPR10 human receptor transfected in CHO cells [1] [%] | % of PrRP31, RC-4B/C rat pituitary cells (rat PrRP receptor) [%] | further results
1 | CCCC[C@H](NC(=O)[C@H](CO)NC(=O)[C@H](Cc1c[nH]cn1)NC(=O)[C@H](CCC(N)=O)NC(=O)[C@H](Cc1c[nH]cn1)NC(=O)[C@H](C)NC(=O)[C@H](CCCNC(=N)N)NC(=O)[C@@H](N)CO)C(=O)N[C@@H](CCC(=O)O)C(=O)N[C@H](C(=O)N[C@@H](CCCNC(=N)N)C(=O)N[C@H](C(=O)N1CCC[C@H]1C(=O)N[C@@H](CC(=O)O)C(=O)N[C@H](C(=O)N[C@@H](CC(N)=O)C(=O)N1CCC[C@H]1C(=O)N[C@@H](C)C(=O)N[C@@H](Cc1c[nH]c2ccccc12)C(=O)N[C@@H](Cc1ccc(O)cc1)C(=O)N[C@H](C(=O)NCC(=O)N[C@@H](CCCNC(=N)N)C(=O)NCC(=O)N[C@H](C(=O)N[C@@H](CCCNC(=N)N)C(=O)N1CCC[C@H]1C(=O)N[C@H](C(=O)NCC(=O)N[C@@H](CCCNC(=N)N)C(=O)N[C@@H](Cc1cccc2ccccc12)C(N)=O)C(C)C)[C@@H](C)CC)[C@@H](C)O)[C@@H](C)CC)[C@@H](C)O)[C@@H](C)O [Analog 10] (H-SRAHQHS[Nle]ETRTPDINPAWYTGRGIRPVGR[1Nal]-NH2) | 11 | 4.8 | –
2 | CCCCCCCCCCCCCC(=O)N[C@@H](CO)C(=O)N[C@@H](CCCNC(=N)N)C(=O)N[C@@H](C)C(=O)N[C@@H](Cc1c[nH]cn1)C(=O)N[C@@H](CCC(N)=O)C(=O)N[C@@H](Cc1c[nH]cn1)C(=O)N[C@@H](CO)C(=O)N[C@@H](CCCC)C(=O)N[C@@H](CCC(=O)O)C(=O)N[C@H](C(=O)N[C@@H](CCCNC(=N)N)C(=O)N[C@H](C(=O)N1CCC[C@H]1C(=O)N[C@@H](CC(=O)O)C(=O)N[C@H](C(=O)N[C@@H](CC(N)=O)C(=O)N1CCC[C@H]1C(=O)N[C@@H](C)C(=O)N[C@@H](Cc1c[nH]c2ccccc12)C(=O)N[C@@H](Cc1ccc(O)cc1)C(=O)N[C@H](C(=O)NCC(=O)N[C@@H](CCCNC(=N)N)C(=O)NCC(=O)N[C@H](C(=O)N[C@@H](CCCNC(=N)N)C(=O)N1CCC[C@H]1C(=O)N[C@H](C(=O)NCC(=O)N[C@@H](CCCNC(=N)N)C(=O)N[C@@H](Cc1cccc2ccccc12)C(N)=O)C(C)C)[C@@H](C)CC)[C@@H](C)O)[C@@H](C)CC)[C@@H](C)O)[C@@H](C)O [Analog 11] (Myristoyl-SRAHQHS[Nle]ETRTPDINPAWYTGRGIRPVGR[1Nal]-NH2) | 292 | 124 | –
3 | CCCC[C@H](NC(=O)CNC(=O)[C@H](CCCNC(=N)N)NC(=O)[C@@H]1CCCN1C(=O)[C@H](Cc1ccc(O)cc1)NC(=O)[C@H](Cc1c[nH]c2ccccc12)NC(=O)[C@H](Cc1c[nH]cn1)NC(=O)[C@@H](NC(=O)[C@H](CC(=O)O)NC(=O)[C@H](C)NC(=O)[C@@H]1CCCN1C(=O)[C@H](CCCNC(=N)N)NC(=O)[C@H](CCC(N)=O)NC(=O)[C@H](Cc1c[nH]cn1)NC(=O)[C@@H](N)CO)[C@@H](C)O)C(=O)N[C@@H](Cc1ccccc1)C(=O)N1CCC[C@H]1C(=O)N[C@H](C(=O)N[C@H](C(=O)NCC(=O)N[C@@H](CCCNC(=N)N)C(=O)N[C@H](C(=O)N[C@H](C(=O)N[C@@H](C)C(=O)N[C@@H](CCCNC(=N)N)C(=O)N[C@@H](CC(N)=O)C(=O)NCC(=O)N[C@@H](CCC(=O)O)C(=O)N[C@H](C(=O)N[C@@H](CO)C(=O)N[C@@H](CCCNC(=N)N)C(=O)O)C(C)C)[C@@H](C)O)[C@@H](C)CC)[C@@H](C)CC)[C@@H](C)O [Analog 19] (H-SHQRPADTHWYPRG[Nle]FPTIGRITARNGEVSR-OH; N-terminus and C-terminus assumed) | – | 0.00004 | Ki (rat PrRP receptor; RC-4B/C cells, displacement of 125I-rat PrRP31, read-out: Ki, RC-4B/C rat pituitary cells ^25I-rat PrRP31): 1320 ± 1260 µM
4 | CCCCCCCCCCCCCCCC(=O)N[C@@H](CO)C(=O)N[C@@H](CCCNC(=N)N)C(=O)N[C@H](C(=O)N[C@@H](Cc1c[nH]cn1)C(=O)N[C@@H](CCCNC(=N)N)C(=O)N[C@@H](Cc1c[nH]cn1)C(=O)N[C@@H](CO)C(=O)N[C@@H](CCSC)C(=O)N[C@@H](CCC(=O)O)C(=O)N[C@H](C(=O)N[C@@H](CCCNC(=N)N)C(=O)N[C@H](C(=O)N1CCC[C@H]1C(=O)N[C@@H](CC(=O)O)C(=O)N[C@H](C(=O)N[C@@H](CC(N)=O)C(=O)N1CCC[C@H]1C(=O)N[C@@H](C)C(=O)N[C@@H](Cc1c[nH]c2ccccc12)C(=O)N[C@@H](Cc1ccc(O)cc1)C(=O)N[C@@H](C)C(=O)N[C@@H](CO)C(=O)N[C@@H](CCCNC(=N)N)C(=O)NCC(=O)N[C@H](C(=O)N[C@@H](CCCNC(=N)N)C(=O)N1CCC[C@H]1C(=O)N[C@H](C(=O)NCC(=O)N[C@@H](CCCNC(=N)N)C(=O)N[C@@H](Cc1ccccc1)C(=O)NOC)C(C)C)[C@@H](C)CC)[C@@H](C)CC)[C@@H](C)O)[C@@H](C)CC)[C@@H](C)O [Analog 45] (Palmitoyl-SRTHRHSMEIRTPDINPAWYASRGIRPVGR-X1) | 92 | – | –
5 | CCCCCCCCCCCCCCCC(=O)NCCCC[C@H](NC(=O)[C@@H](NC(=O)[C@H](CC(=O)O)NC(=O)[C@@H]1CCCN1C(=O)[C@@H](N)[C@@H](C)O)[C@@H](C)CC)C(=O)N1CCC[C@H]1C(=O)N[C@@H](C)C(=O)N[C@@H](Cc1c[nH]c2ccccc12)C(=O)N[C@@H](Cc1ccc(O)cc1)C(=O)N[C@@H](C)C(=O)N[C@@H](CO)C(=O)N[C@@H](CCCNC(=N)N)C(=O)NCC(=O)N[C@H](C(=O)N[C@@H](CCCNC(=N)N)C(=O)N1CCC[C@H]1C(=O)N[C@H](C(=O)NCC(=O)N[C@@H](CCCNC(=N)N)C(=O)N[C@@H](Cc1ccccc1)C(N)=O)C(C)C)[C@@H](C)CC [Analog 49] (H-TPDIK(Palmitoyl)PAWYASRGIRPVGRF-NH2) | 90 | – | Ki [1, 2]: 0.00434 ± 0.00045 µM
6 | CCCCCCCCCCCCCCCC(=O)NCCCC[C@H](NC(=O)[C@@H]1CCCN1C(=O)[C@H](CC(N)=O)NC(=O)[C@@H](NC(=O)[C@H](CC(=O)O)NC(=O)[C@@H]1CCCN1C(=O)[C@@H](N)[C@@H](C)O)[C@@H](C)CC)C(=O)N[C@@H](Cc1c[nH]c2ccccc12)C(=O)N[C@@H](Cc1ccc(O)cc1)C(=O)N[C@@H](C)C(=O)N[C@@H](CO)C(=O)N[C@@H](CCCNC(=N)N)C(=O)NCC(=O)N[C@H](C(=O)N[C@@H](CCCNC(=N)N)C(=O)N1CCC[C@H]1C(=O)N[C@H](C(=O)NCC(=O)N[C@@H](CCCNC(=N)N)C(=O)N[C@@H](Cc1ccccc1)C(N)=O)C(C)C)[C@@H](C)CC [Analog 50] (H-TPDINPK(Palmitoyl)WYASRGIRPVGRF-NH2) | 69 | – | Ki [1, 2]: 0.00564 ± 0.00035 µM
7 | SRAHQHSMETRTPDINPAWYTGRGIRPVGRF-NH2 [Rat PrRP31, reference compound] | – | – | Ki [1]: 0.00389 ± 0.00112 µM
